≈ marks a conversion by molar mass, not a printed value. Read-outs that look alike come from different tables or passages of the source.

The subject of series [1] is SW480 human colon adenocarcinoma cells. The experiment in a line: Cell viability, sulforhodamine B (SRB) assay, SW480 cells. The class given is cell-based. Particulars: for IC50: Homo sapiens, SW480 cells, SRB. Here is the method: (§1) Biological assays were performed using an adenocarcinoma colon cancer cell line (SW480) and non-malignant cells (CHO-K1). These were obtained from the European Collection of Authenticated Cell Cultures (ECACC, England) and maintained in Dulbecco’s Modified Eagle Medium, supplemented with 10% heat-inactivated (56 °C) horse serum, 1% penicillin/streptomycin and 1% non-essential amino acids (Gibco Invitrogen, Carlsbad, USA). For all experiments, horse serum was reduced to 3%, and the medium was supplemented with […] transferrin, 5 ng/mL selenium and […] insulin (ITS-defined medium; Gibco, Invitrogen, Carlsbad, USA) ([32]).
(§2) The cell viability of the synthesized hybrids, lead, and reference compounds was evaluated through Sulforhodamine B (SRB) assay, a colorimetric test that is based on staining of total cellular protein of adherent cells. The cells were seeded to a ﬁnal density of 20.000 cells/well in 96-well tissue culture plates and incubated at 37 °C in a humidified atmosphere at 5% CO2. […] After treatment, the cells were fixed with trichloroacetic acid (50% v/v) (MERCK) for a period of one h at 4 °C. The cell proteins were determined by staining with 0.4% (w/v) SRB (Sigma-Aldrich, United States), then they were washed with 1% acetic acid for the removal of unbound SRB and left for air-drying. Protein bound SRB was solubilized in 10 mM Tris-base and the absorbance was measured at 492 nm in a microplate reader (Mindray MR-96A) ([33]). All of the experiments were performed at least in quintuplicate.
A general note: Sulforhodamine B stains cellular protein and so reports cell mass.

Series [2] concerns non-malignant CHO-K1 cell line. The experiment in a line: Cell viability, sulforhodamine B (SRB) assay, CHO-K1 cells. The series is classed as cell-based. The following applies: Cricetulus griseus. Here is the method:
as §1, §2

Series [3] concerns SW480 cells. The experiment in a line: Cell cycle analysis, propidium iodide flow cytometry. The series is classed as cell-based, human. Particulars: SW480, treated at IC50, 48 h. Here is the method: Cell cycle distribution was analyzed by labelling cells with propidium iodide (PI). Assays were carried out as described by Nicoletti et al. (1991). In brief, cells were seeded in 6-well tissue culture plates at a density of 2.5 x 10^5 cells/well, incubated at 37 °C in a 5% CO2 atmosphere. […] After the treatment, the cells were collected by scraping and the centrifuged cell pellet was resuspended with phosphate buffered saline (PBS). The cell suspension was fixed in 1.8 mL 70% ethanol at 4°C overnight, afterward, these were centrifuged, washed twice in PBS and resuspended in 300 µL of PBS containing 0.25 mg/mL RNAse (Type I-A, Sigma-Aldrich, Germany) and 0.1 mg/mL PI. Following the incubation in the dark at room temperature for 30 min, the PI ﬂuorescence of 10,000 cells was analyzed using a FACS Canto II ﬂow cytometer and the software BD FACS Diva 6.1.3. (BD Biosciences, San Jose). PI signal was analyzed with excitation at 488 nm, using a Sapphire laser, and fluorescence was detected at 610nm. The cell clumps were excluded with the PI-Area vs PI-Width signals. The cell cycle model was ﬁxed using the software FlowJo 7.6.2 (Ashland, OR, USA), applying the Dean-Jett-Fox model ([34], [35]).
(In general: In flow cytometry, cells or beads pass a laser one at a time.)

The test system of series [4] is SW480 cells. The experiment in a line: Mitochondrial membrane potential (ΔΨm), DiOC6/PI flow cytometry. The class given is cell-based, human. The following applies: SW480, treated at IC50, 48 h. Here is the method: Mitochondrial membrane permeability changes were assessed through the fluorescent dye DiOC6 (3,3’-dihexyloxacarbocyanine iodide, Thermo Fisher Scientiﬁc, Waltham, MA, USA), and propidium iodide (PI). The cells were seeded to a ﬁnal density of 2.5 x 10^5 cells/well in 6-well tissue culture plates and were allowed to grow for 24 h. […] The cells were collected to analyze 10,000 events by ﬂow cytometry with excitation at 488 nm and detection of the emission with the green (530/15 nm) and the red (610/20 nm) ﬁlters. This method allowed us quantifying cells with depolarized mitochondrial membrane ([34]).

Series [5] relates to SW480 cells. The experiment in a line: Antiproliferative activity, SRB assay over 0-8 days. The series is classed as cell-based, human. Particulars: 0.1-0.55 mM, p ≤ 0.05 vs control. Here is the method:
Briefly, the cells were seeded to a ﬁnal density of 2500 cells/well in 96-well tissue culture plates and incubated in the same conditions described for viability. […] Culture media was replaced every 48 h. After each incubation time, the cells were fixed, stained, and read as previously described for this technique ([32]).

In series [6] the test system is human nasopharyngeal carcinoma cell line KB. Also noted: method as in PMID 19272773. Particulars: cited from earlier work.
Series [7] deals with human gastric carcinoma cell line BGC-823. Also noted: method as in PMID 19272773. The following applies: cited from earlier work.
The subject of series [8] is human hepatoma cell line BEL-7402. Also noted: method as in PMID 19272773. Particulars: cited from earlier work.

`C=CCSC[C@H](NC(=O)/C=C/c1ccc(OC(C)=O)c(OC(C)=O)c1)C(=O)OCCCCC` [6e, Pentyl N-{(2E)-3-[3,4-bis(acetyloxy)phenyl]prop-2-enoyl}-S-prop-2-en-1-ylcysteinate]: the melting point (usually the temperature of the solid-liquid transition) is 101 to 103 °C. In addition, the IC50 (usually the concentration needed to halve the response being measured) in series [1] (24 h treatment, read-out: IC50 (mM) SW480 cells, 24 h) came to 0.68 mM. Moreover, in [1] (48 h treatment, read-out: IC50 (mM) SW480 cells, 48 h), the IC50 came out at 0.18 mM. Besides, the “SI (selectivity index), 24 h” value in [1] (ratio of IC50 against CHO-K1 to IC50 against SW480, 24 h) amounted to 0.40. For the same molecule, the “SI (selectivity index), 48 h” value in series [1] (ratio of IC50 against CHO-K1 to IC50 against SW480, 48 h) worked out at 10.3. Further, the IC50 in [2] (24 h treatment, read-out: IC50 (mM) CHO-K1 cells, 24 h) was determined as 0.26 mM. In series [2] (48 h treatment, read-out: IC50 (mM) CHO-K1 cells, 48 h), the IC50 came out at 1.84 mM. Further, in [3], the “Cells in G2/M phase” value came to 22.7% and the “Effect on cell cycle in words” value is listed as “cell cycle arrest in G2/M phase”. In addition, the “PI+ cells” value in series [4] (cells in process of death) was 9,38%. For the same molecule, in series [4] (cells that lose membrane polarization), the DiOC6 low cells was 39,9%. For the same molecule, the DiOC6 high cells in series [4] (live cells with high membrane polarization) is 51,0%. Also, in [5], the “Day from which significant antiproliferative activity was displayed” value was found to be 2 days.
In the case of `Cc1cccc(NC(=O)/C(C#N)=C/c2cc(O)c(O)c([N+](=O)[O-])c2)c1` [cyanoamide derivative 5], the “IC50 against KB” value in series [6] is recorded as 13.1 µg/mL (≈ 38.6 µM). Moreover, the “IC50 against BGC-823” value in series [7] was 5.6 µg/mL (≈ 16.5 µM). In addition, in series [8], the “IC50 against BEL-7402” value is 12.5 µg/mL (≈ 36.8 µM).

The values above are taken from publication PMC7059070, “Synthesis and in-vitro Evaluation of S-allyl Cysteine Ester - Caffeic Acid Amide Hybrids as Potential Anticancer Agents” (Iranian Journal of Pharmaceutical Research : IJPR, 2019).
